Experimental data as given in patent US5686486A, “4-hydroxy-benzopyran-2-ones and 4-hydroxy-cycloalkyl[b]pyran-2-ones useful to treat retroviral infections” (priority 1995, dated 1997).
Where two headings read alike, the source gives them in different places.

Target: HIV-1 protease (Human immunodeficiency virus type 1 group M subtype B, UniProt P04585)
Experiment: biochemical
Conditions: for inhibition at 0.123 µM: read-out: HIV-1 Protease % Inhib, dose 0.123 uM
Procedure, shortened: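 Biotinylated, FITC-labeled peptide substrate (20 μl of 0.2 μM) incubated with HIV-1 protease (10 μl of 0.1 μM) and compound in 0.1 M sodium acetate pH 5.5, 1.0 M NaCl, 0.05% NP-40, 1 h, room temperature, dark. Streptavidin beads then capture uncleaved substrate; filtered labeled product read by fluorescence, giving percent inhibition.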

[1] = read-out: HIV-1 Protease % Inhib, dose 0.370 uM
[2] = read-out: HIV-1 Protease % Inhib, dose 1.100 uM
[3] = read-out: HIV-1 Protease % Inhib, dose 3.300 uM
[4] = read-out: HIV-1 Protease % Inhib, dose 10.000 uM
[5] = read-out: HIV-1 Protease % Inhib, dose 30.000 uM
[6] = dose 3.300 uM, read-out: HIV-1 Protease % Inhib
[7] = dose 10.000 uM, read-out: HIV-1 Protease % Inhib
[8] = dose 30.000 uM, read-out: HIV-1 Protease % Inhib
[9] = dose 1.100 uM, read-out: HIV-1 Protease % Inhib
[10] = dose 0.370 uM, read-out: HIV-1 Protease % Inhib

With `O=c1oc2c(c(O)c1C(c1cccc(NS(=O)(=O)c3ccc(C(F)(F)F)cc3)c1)C1CC1)CCCCCC2` (centres unmarked) [Example 267, N-[3-[Cyclopropyl(5,6,7,8,9,10-hexahydro-4-hydroxy-2-oxo-2H-cycloocta[b]pyran-3-yl)methyl]phenyl]-4-(trifluoromethyl)-benzenesulfonamide] the inhibition at 0.123 µM was 71.5%, the inhibition at 0.37 µM [1] was 83.9% and the inhibition at 1.1 µM [2] was 92%. It also gave an inhibition at 3.3 µM [3] of 107%, an inhibition at 10 µM [4] of 107% and an inhibition at 30 µM [5] of 110%.
`O=c1oc2c(c(O)c1C(c1cccc(NS(=O)(=O)c3cccc4ccccc34)c1)C1CC1)CCCCCC2` (centres unmarked) [Example 270, N-[3-[Cyclopropyl(5,6,7,8,9,10-hexahydro4-hydroxy-2-oxo-2H-cycloocta[b]pyran-3-yl)methyl]phenyl]-1-naphthalenesulfonamide] showed an inhibition at 0.123 µM of 61.7%, an inhibition at 0.37 µM [1] of 93.1% and an inhibition at 1.1 µM [2] of 107%. It also gave an inhibition at 3.3 µM [3] of 111%, an inhibition at 10 µM [4] of 116% and an inhibition at 30 µM [5] of 115%.
`O=c1oc2c(c(O)c1C(c1cccc(NS(=O)(=O)c3cc(Cl)ccc3Cl)c1)C1CC1)CCCCCC2` (centres unmarked) [Example 271, 2,5-Dichloro-N-[3-[cyclopropyl(5,6,7,8,9,10-hexahydro-4-hydroxy-2-oxo-2H-cycloocta[b]pyran-3-yl)methyl]phenyl]-benzenesulfonamide] showed an inhibition at 0.37 µM [1] of 16.7%, an inhibition at 1.1 µM [2] of 47.5% and an inhibition at 3.3 µM [3] of 75.3%. It also gave an inhibition at 10 µM [4] of 88.8% and an inhibition at 30 µM [5] of 94.2%.
In the case of `O=c1oc2c(c(O)c1C(c1cccc(NS(=O)(=O)c3ccc(Br)cc3)c1)C1CC1)CCCCCC2` (centres unmarked) [Example 272, 4-Bromo-N-[3-[cyclopropyl(5,6,7,8,9,10-hexahydro-4-hydroxy-2-oxo-2H-cycloocta[b]pyran-3-yl)methyl]phenyl]-benzenesulfonamide], the inhibition at 0.123 µM is reported as 67.1%, the inhibition at 0.37 µM [1] is reported as 85.2% and the inhibition at 1.1 µM [2] is reported as 95.3%. It also gave an inhibition at 3.3 µM [3] of 96.2%, an inhibition at 10 µM [4] of 101% and an inhibition at 30 µM [5] of 104%.
Work on `O=c1oc2c(c(O)c1C(c1cccc(NS(=O)(=O)c3ccc([N+](=O)[O-])cc3)c1)C1CC1)CCCCCC2` (centres unmarked) [Example 273, N-[3-[Cyclopropyl(5,6,7,8,9,10-hexahydro-4-hydroxy-4-oxo-2H-cycloocta[b]pyran-3-yl)methyl]phenyl]4-nitro-benzenesulfonamide] yielded an inhibition at 0.123 µM of 68.4%, an inhibition at 0.37 µM [1] of 92.3% and an inhibition at 1.1 µM [2] of 95.9%. It also gave an inhibition at 3.3 µM [3] of 98.2%, an inhibition at 10 µM [4] of 102% and an inhibition at 30 µM [5] of 108%.
In the case of `O=c1oc2c(c(O)c1C(c1cccc(NS(=O)(=O)c3cccc([N+](=O)[O-])c3)c1)C1CC1)CCCCCC2` (centres unmarked) [Example 274, N-[3-[Cyclopropyl(5,6,7,8,9,10-hexahydro-4-hydroxy-2-oxo-2H-cycloocta[b]pyran-3-yl)methyl]phenyl]-3-nitro-benzenesulfonamide], the inhibition at 0.123 µM is reported as 70%, the inhibition at 0.37 µM [1] is reported as 88.2% and the inhibition at 1.1 µM [2] is reported as 95.8%. The inhibition at 3.3 µM [3] was 98.8%, the inhibition at 10 µM [4] was 103% and the inhibition at 30 µM [5] was 105%.
With `COc1ccc(S(=O)(=O)Nc2cccc(C(c3c(O)c4c(oc3=O)CCCCCC4)C3CC3)c2)cc1` (centres unmarked) [Example 275, N-[3-[Cyclopropyl(5,6,7,8,9, 10-hexahydro-4-hydroxy-2-oxo-2H-cycloocta[b]pyran-3-yl)methyl]phenyl]-4-methoxy-benzenesulfonamide] the inhibition at 0.123 µM was 79.3%, the inhibition at 0.37 µM [1] was 120% and the inhibition at 1.1 µM [2] was 128%. It also gave an inhibition at 3.3 µM [3] of 131%, an inhibition at 10 µM [4] of 133% and an inhibition at 30 µM [5] of 131%.
`O=C(O)c1ccc(S(=O)(=O)Nc2cccc(C(c3c(O)c4c(oc3=O)CCCCCC4)C3CC3)c2)cc1` (centres unmarked) [Example 276, 4-[[[3-[Cyclopropyl(5,6,7,8,9,10-hexahydro-4-hydroxy-2-oxo-2H-cycloocta[b]pyran-3-yl)methyl]phenyl]amino]sulfonyl]-benzoic acid] showed an inhibition at 0.123 µM of 53.4%, an inhibition at 0.37 µM [1] of 92.8% and an inhibition at 1.1 µM [2] of 99.3%. The inhibition at 3.3 µM [3] was 94.7%, the inhibition at 10 µM [4] was 112% and the inhibition at 30 µM [5] was 124%.
With `Cc1cc(C)c(S(=O)(=O)Nc2cccc(C(c3c(O)c4c(oc3=O)CCCCCC4)C3CC3)c2)c(C)c1` (centres unmarked) [Example 277, N-[3-[Cyclopropyl(5,6,7,8,9,10-hexahydro-4-hydroxy-2-oxo-2H-cycloocta[b]pyran-3-yl)methyl]phenyl]-2,4,6-trimethyl-benzenesulfonamide] the inhibition at 3.3 µM [6] was 37.9%, the inhibition at 10 µM [7] was 79.9% and the inhibition at 30 µM [8] was 94.1%.
Compound `O=c1oc2c(c(O)c1C(c1cccc(NS(=O)(=O)c3ccc(F)cc3F)c1)C1CC1)CCCCCC2` (centres unmarked) [Example 279, N-[3-[Cyclopropyl(5,6,7,8,9,10-hexahydro-4-hydroxy-2-oxo-2H-cycloocta[b]pyran-3-yl)methyl]phenyl]-2,4-difluoro-benzenesulfonamide] has an inhibition at 0.123 µM of 78.2%, an inhibition at 0.37 µM [1] of 97.3% and an inhibition at 1.1 µM [2] of 105%. For the same compound, the inhibition at 3.3 µM [3] was 103%, the inhibition at 10 µM [4] was 109% and the inhibition at 30 µM [5] was 94.8%.
Work on `CCCCOc1ccc(S(=O)(=O)Nc2cccc(C(c3c(O)c4c(oc3=O)CCCCCC4)C3CC3)c2)cc1` (centres unmarked) [Example 282, 4-Butoxy-N-[3-[cyclopropyl(5,6,7,8,9,10-hexahydro-4-hydroxy-2-oxo-2H-cycloocta[b]pyran-3-yl)methyl]phenyl]-benzenesulfonamide] yielded an inhibition at 1.1 µM [9] of 10.6%, an inhibition at 3.3 µM [6] of 43.2% and an inhibition at 10 µM [7] of 65.3%. It also gave an inhibition at 30 µM [8] of 96.3%.
Work on `CN(C)c1cccc2c(S(=O)(=O)Nc3cccc(C(c4c(O)c5c(oc4=O)CCCCCC5)C4CC4)c3)cccc12` (centres unmarked) [Example 283, N-[3-[Cyclopropyl(5,6,7,8,9,10-hexahydro4-hydroxy-2-oxo-2H-cycloocta[b]pyran-3-yl)methyl]phenyl]-5-(dimethylamino)-1-naphthalenesulfonamide] yielded an inhibition at 0.37 µM [10] of 10.6%, an inhibition at 1.1 µM [9] of 42.3% and an inhibition at 3.3 µM [6] of 64.2%. It also gave an inhibition at 10 µM [7] of 85.1% and an inhibition at 30 µM [8] of 80.2%.
Work on `O=c1oc2c(c(O)c1C(c1cccc(NS(=O)(=O)c3cccc(Cl)c3Cl)c1)C1CC1)CCCCCC2` (centres unmarked) [Example 285, 2,3-Dichloro-N-[3-[cyclopropyl(5,6,7,8,9,10-hexahydro4-hydroxy-2-oxo-2H-cycloocta[b]pyran-3-yl)methyl]phenyl]-benzenesulfonamide] yielded an inhibition at 0.123 µM of 37.6%, an inhibition at 0.37 µM [1] of 73.8% and an inhibition at 1.1 µM [2] of 84.6%. For the same compound, the inhibition at 3.3 µM [3] was 95%, the inhibition at 10 µM [4] was 97.7% and the inhibition at 30 µM [5] was 91.8%.
`Cc1cccc(Cl)c1S(=O)(=O)Nc1cccc(C(c2c(O)c3c(oc2=O)CCCCCC3)C2CC2)c1` (centres unmarked) [Example 287, 2-Chloro-N-[3-[cyclopropyl(5,6,7,8,9,10-hexahydro4-hydroxy-2-oxo-2H-cycloocta[b]pyran-3-yl)methyl]phenyl]-6-methyl-benzenesulfonamide] was tested, and the inhibition at 0.37 µM [10] was 14.1%, the “HIV-1 Protease % Inhib” value (dose 1.100 uM) was 36.69% and the inhibition at 1.1 µM [9] was 44.1%. The “HIV-1 Protease % Inhib” value (dose 3.300 uM) was 64.32%, the inhibition at 3.3 µM [6] was 68.2% and the “HIV-1 Protease % Inhib” value (dose 10.000 uM) was 92.75%. For the same compound, the inhibition at 10 µM [7] was 85.8%, the “HIV-1 Protease % Inhib” value (dose 30.000 uM) was 106.21% and the inhibition at 30 µM [8] was 86.7%.
`O=c1oc2c(c(O)c1C(c1cccc(NS(=O)(=O)c3cc(Cl)cc(Cl)c3)c1)C1CC1)CCCCCC2` (centres unmarked) [Example 288, 3,5-Dichloro-N-[3-[cyclopropyl(5,6,7,8,9,10-hexahydro-4-hydroxy-2-oxo-2H-cycloocta[b]pyran-3-yl)methyl]phenyl]-benzenesulfonamide] showed an inhibition at 0.123 µM of 46.9%, an inhibition at 0.37 µM [1] of 79.1% and an inhibition at 1.1 µM [2] of 90.5%. The inhibition at 3.3 µM [3] was 92.9%, the inhibition at 10 µM [4] was 105% and the inhibition at 30 µM [5] was 101%.
`O=c1oc2c(c(O)c1C(c1cccc(NS(=O)(=O)c3cccc(Cl)c3)c1)C1CC1)CCCCCC2` (centres unmarked) [Example 289] gave an inhibition at 0.123 µM of 63.7%, an inhibition at 0.37 µM [1] of 80% and an inhibition at 1.1 µM [2] of 91.1%. For the same compound, the inhibition at 3.3 µM [3] was 97.3%, the inhibition at 10 µM [4] was 95.3% and the inhibition at 30 µM [5] was 101%.
Work on `O=c1oc2c(c(O)c1C(c1cccc(NS(=O)(=O)c3cccc(Br)c3)c1)C1CC1)CCCCCC2` (centres unmarked) [Example 291, 3-Bromo-N-[3-[cyclopropyl(5,6,7,8,9,10-hexahydro-4-hydroxy-2-oxo-2H-cycloocta[b]pyran-3-yl)methyl]phenyl]-benzenesulfonamide] yielded an inhibition at 0.123 µM of 80.4%, an inhibition at 0.37 µM [1] of 108% and an inhibition at 1.1 µM [2] of 109%. For the same compound, the inhibition at 3.3 µM [3] was 122%, the inhibition at 10 µM [4] was 118% and the inhibition at 30 µM [5] was 117%.
`O=C(O)c1cccc(S(=O)(=O)Nc2cccc(C(c3c(O)c4c(oc3=O)CCCCCC4)C3CC3)c2)c1` (centres unmarked) [Example 292, 3-[[[3-[Cyclopropyl(5,6,7,8,9,10-hexahydro4-hydroxy-2-oxo-2H-cycloocta[b]pyran-3-yl)methyl]phenyl]amino]sulfonyl]-benzoic acid] showed an inhibition at 0.123 µM of 74.4%, an inhibition at 0.37 µM [1] of 104% and an inhibition at 1.1 µM [2] of 111%. For the same compound, the inhibition at 3.3 µM [3] was 125%, the inhibition at 10 µM [4] was 115% and the inhibition at 30 µM [5] was 111%.
In the case of `O=c1oc2c(c(O)c1C(c1cccc(NS(=O)(=O)c3ccccc3Cl)c1)C1CC1)CCCCCC2` (centres unmarked) [Example 293, 2-Chloro-N-[3-[cyclopropyl(5,6,7,8,9,10-hexahydro-4-hydroxy-2-oxo-2H-cycloocta[b]pyran-3-yl)methyl]phenyl]-benzenesulfonamide], the inhibition at 0.123 µM is reported as 54.9%, the inhibition at 0.37 µM [1] is reported as 82.4% and the inhibition at 1.1 µM [2] is reported as 96.8%. For the same compound, the inhibition at 3.3 µM [3] was 107%, the inhibition at 10 µM [4] was 105% and the inhibition at 30 µM [5] was 109%.
